Earlier results in patent publication US12246054B2, “Method of treating diseases” (Amryt Endo, Inc., priority 2015, dated 2025).

What was measured:
[1] = system: idiopathic intracranial hypertension; settings: IIH patients; injections
[2] = in vivo

## C[C@@H](O)[C@@H]1NC(=O)[C@H](CCCCN)NC(=O)[C@@H](Cc2c[nH]c3ccccc23)NC(=O)[C@H](Cc2ccccc2)NC(=O)[C@@H](NC(=O)[C@H](N)Cc2ccccc2)CSSC[C@@H](C(=O)N[C@H](CO)[C@@H](C)O)NC1=O [octreotide]
[1]
  Patients in whom headache and papilledema subsided and visual disturbances improved (response rate): about 90%
[2]
  acute rebound GH hypersecretion: absence of acute rebound GH hypersecretion
  circulating half-life: 2 h
